According to patent US6630075B2, “Use of fluorinated ketones in fire extinguishing compositions” (3M Innovative Properties Company, priority 1999, dated 2003):

Columns and labels:
[1] = total flooding evaluation in 1.28 m^3 enclosure (Ohmic Heating Test procedure); conditions: 1000 g agent, nitrogen 50 psi
From the text: This example was run to evaluate the fire performance of a fluorinated ketone of this invention, CF3CF2C(O)CF(CF3)2 (the fluorinated ketone as prepared in Example 1), in a total flooding evaluation for a clean extinguishing agent.
For this evaluation, a 1.28 m^3 (0.915 m×0.915 m×1.525 m) steel reinforced polycarbonate “box” enclosure was used, into which a fixed piping system, normally designed to deliver a gaseous clean extinguishing agent, was filled instead with a composition that is liquid at room temperature and discharged into the “box” to extinguish a fire. Using this modified system and procedure, the liquid fluorinated ketone used, CF3CF2C(O)CF(CF3)2, could be discharged into the enclosure indirectly in the same manner as could a gaseous clean extinguishing agent and thus allow the liquid agent to extinguish an obstructed fire located remotely in the enclosure.
In this modified procedure, a Swagelok Whitey 2000 mL cylinder was filled with 1000 g of CF3CF2C(O)CF(CF3)2 and was super-pressurized with nitrogen to 50 psi (345 kPa). Attached to the bottom of the cylinder was a 0.25 in (0.6 cm) Swagelok Whitey SS1RFA-A stainless steel angle valve, to which was fixed 34 in (86.4 cm) of nominal 0.25 in (6.5 mm) piping arrangement, including a 0.25 in (6.5 mm) Jamesbury Clincher ¼-turn ball valve. The piping was connected to a Bete NF 0500 square edge orifice nozzle. […]

mice = test: short term inhalation tests with mice; assay type: in vivo; conditions: mice exposed for four hours at 50,000 ppm in air
[2] = Micro-Cup Burner Test (extinguishing concentration; Mass Ratio Calculation vs HALON 1211)
From the text: The Micro-Cup Burner Test is a laboratory test which measures the extinguishing ability of an agent based on the quantity of agent required to extinguish a fire under the following test conditions. The Micro-Cup Burner Test utilizes a quartz concentric-tube laminar-diffusion flame burner (micro-cup burner, of similar design to the above-described cup apparatus) aligned vertically with all flows upward. A fuel, typically propane unless otherwise specified, flows at 10.0 sccm (standard cubic centimeters per minute) through a 5-mm I.D. inner quartz tube which is centered in a 15-mm I.D. quartz chimney. The chimney extends 4.5 cm above the inner tube. Air flows through the annular region between the inner tube and the chimney at 1000 sccm. Prior to the addition of extinguishing composition, a visually stable flame is supported on top of the inner tube, and the resulting combustion products flow out through the chimney. An extinguishing composition to be evaluated is introduced into the air stream upstream of the burner. Liquid compositions are introduced by a syringe pump (which is calibrated to within 1%) and are volatilized in a heated trap. Gaseous compositions are introduced via a mass-flow controller to the air stream upstream from the burner. For consistency, the air-gaseous composition mixture then flows through the heated trap prior to its introduction to the flame burner. All gas flows are maintained by electronic mass-flow controllers which are calibrated to within 2%. The fuel is ignited to produce a flame and is allowed to burn for 90 seconds. After 90 seconds, a specific flow rate of composition is introduced, and the time required for the flame to be extinguished is recorded. The reported extinguishing concentrations are the recorded volume % of extinguishing composition in air required to extinguish the flame within an average time of 30 seconds or less.
The above-mentioned cup burner test measures the performance of an extinguishing composition by determining the minimum volume percent of composition in air required to extinguish a test fire. However, it is often desirable to directly compare the fire performance of an experimental extinguishing composition (e.g., a fluorinated ketone) against the performance of a state-of-the-art extinguishing composition, such as HALON™ 1211 fire extinguishing agent (CF2ClBr, a bromochlorofluorocarbon). One way to make such a comparison is to derive the mass ratio of experimental composition to HALON™ 1211 fire extinguishing agent from the volume percentages of each composition required for extinguishing. The mass ratio can be calculated by dividing the experimental composition's extinguishing volume percent by the HALON™ 1211 agent's extinguishing volume percent and multiplying the resulting quotient (which, according to the ideal gas law, also represents the ratio of mole percents) times the weight average molecular weight of the experimental composition divided by the molecular weight of HALON™ 1211 agent (165 g/mole).
In Comparative Example C1, the extinguishing concentration (volume % in air) of HALON™ 1211 fire extinguishing agent was determined as using the Micro-Cup Burner Test.
In Examples 1-16, the extinguishing concentration of several perfluorinated ketones was also determined using the Micro-Cup Burner Test. The mass ratio as compared to HALON™ 1211 fire extinguishing agent was then calculated using the Mass Ratio Calculation.
In Comparative Examples C2-C11, various fluorinated extinguishing compositions known in the art (hydrofluorocarbons, perfluorocarbons, hydrochlorofluorocarbons, hydrofluoroethers, and iodofluorocarbons) were evaluated for their extinguishing concentration, and subsequently their mass ratios were calculated with respect to HALON™ 1211 agent. […]

[3] = manual suppression full-scale streaming test, UL Standard 711 pan fires; conditions: heptane, 60 sec pre-burn
From the text: These two examples were run to illustrate the fire performance of a fluorinated ketone of this invention, CF3CF2C(O)CF(CF3)2 (the fluorinated ketone as prepared in Example 1), using a manual suppression full-scale streaming test for a clean extinguishing agent.
For each example, a standard off-the-shelf Amerex 131b HALON™ 1211 handheld extinguisher was used to introduce the extinguishing composition to the fire. The extinguisher was equipped with a standard ½ in (1.3 cm) nominal diameter rubber hose with a clean extinguishing agent nozzle attached to the end. In each case, the composition was super-pressurized using dry nitrogen at 130-150 psi (900-1040 kPa).
Both fire extinguishing tests were run following essentially the same test procedures and conditions as outlined in UL Standard 711 for the 2B and 5B pan fire scenarios, as normally conducted for UL approval at Underwriters Laboratories, Inc., Northbrook, Ill. The only deviation from that test procedure was that the fire tests for these examples were conducted outside. The fire test pans for the respective fires were sized to be 2.5 times larger than the ultimate extinguisher rating. For example, a 2B UL-rated extinguisher rating requires a skilled firefighter to be able to extinguish a 5 ft^2 (0.46 m^2) fire, a 5B UL-rated extinguisher rating requires extinguishing a 12.5 ft^2(1.16 m^2) fire, etc. For both examples, the UL specified pans were 12 in (30 cm) deep, into which was introduced 4.0 in (10 cm) of water, onto which was introduced 2 in (5 cm) of commercial grade heptane for fuel, leaving a 6 in (15 cm) freeboard above the fuel surface. Each fire was allowed to pre-burn 60 seconds before extinguishing commenced, using an agent flow rate of 0.75-0.80 kg/sec. The discharge time for the extinguishing of the fire was recorded as was the amount of agent discharged.

Structure (SMILES): O=C(C(F)(F)C(F)(F)F)C(F)(C(F)(F)F)C(F)(F)F [Example 1, 1,1,1,2,4,4,5,5,5-nonafluoro-2-trifluoromethyl-butan-3-one]
- time to extinguishing of the obstructed fire from the beginning of agent discharge [1]: ≤ 35 s
- acute toxicity (mice): low acute toxicity
- Mass Ratio to HALON™ 1211 ([2]; calculated from extinguishing volume % and molecular weight relative to HALON 1211 (165 g/mole)): 1.86
- Ext. Conc. (vol %) ([2]; volume % in air required to extinguish the flame within an average time of 30 seconds or less, propane fuel): 3.5 vol %
- Agent Discharged ([3]; UL 2B pan): 2.59 kg
- Discharge Time ([3]; UL 2B pan): 3.5 s
- Agent Discharged ([3]; UL 5B pan): 2.87 kg
- Discharge Time ([3]; UL 5B pan): 3.8 s
